Consider 19 compounds from patent US20260159486A1, “BENZO[H]QUINAZOLINE-4-AMINE DERIVATIVES FOR THE TREATMENT OF CANCER” (Redona Therapeutics, Inc., priority 2021, published 2026).

The test system of one assay is CAL-51 cells. Put plainly: CAL-51 proliferation assay. Format: cell-based. The conditions noted are these: Homo sapiens, CAL-51, 72 h, YO-PRO-1 Iodide readout. The source says:
(§1) MDA-MB-231 and CAL-51 Proliferation Assay
(§2) Cells (MDA-MB-231 (American Type Culture Collection (ATCC), #HTB-26) or CAL-51 (Deutsche Sammlung von Mikroorganismen und Zellkulturen (DSMZ), #ACC302) as applicable) were cultivated in DMEM High Glucose (4.5 g/L) with L-Glutamine (BioConcept, cat. no. 1-26F03-I) supplemented with 1% Na-pyruvate (Sigma, cat. no. S8636), 1% Penicillin-Streptomycin (BioConcept, cat. no. 4-01F00H), and 10% FBS (Sigma, cat. no. F9665) using standard techniques. Cells were seeded in black, clear-bottom 384 well plates for tissue culture (Greiner Bio-One, cat. no. 781091) at a density of 750 cells per well in 20 μL medium and the plates were incubated overnight at 37° C. with 5% CO2 prior to treatment. Experimental compounds were serially diluted in DMSO to 200× the desired final concentrations. The solutions were then diluted 1:40 with culture medium and 5 μL aliquots were mixed into the wells containing the cells. The final concentration of DMSO was 0.5%. The plates were incubated for 72 hours and cell numbers were then measured using YO-PRO™-1 Iodide (ThermoFisher Scientific, cat. no. Y3603) essentially as recommended by the manufacturer. Briefly, a 12.5 μM solution of YO-PRO™_1 Iodide in 5× YO—PRO buffer (100 mM Na-citrate, 130 mM NaCl, pH 4) was combined with an equal volume of lysis buffer (0.6% NP-40, 30 mM EDTA, 30 mM EGTA, 0.33× YO—PRO buffer) and 12.5 μL of the mixture were dispensed into each well. The plates were incubated at room temperature in the dark for 30 minutes. Fluorescence intensity signals were then measured on a Synergy 4 reader (BioTek) using 485/20 nm and 530/25 nm filters for the excitation and emission, respectively. Relative proliferation values were calculated by normalizing the raw data using DMSO-treated cells (100% proliferation) and the signals obtained from cells that were evaluated at the time of compound addition (0% proliferation). The concentration-response data were fitted to a sigmoidal 4-parameter logistic model with the maximum constrained to 100%. GI50 values were calculated from the curves as the compound concentrations reducing proliferation to 50%.

The target of another assay is T1, recombinant human CLK3 (Homo sapiens, UniProt P49761).
T1 construct: purchased Thermo Fisher Scientific PV3826
Put plainly: CLK3 kinase assay (LANCE Ultra). To be noted: CLK3 0.5 nM, ATP 300 μM, 3 hours at 30° C. Format: biochemical. As to the method: CLK3 kinase activity was measured using the LANCE® Ultra technology (PerkinElmer) essentially as recommended by the supplier. Briefly, 2.5 μL of test sample at 4× the desired final concentration in 4% DMSO were dispensed into white, low volume, round bottom, 384 well plates (Corning, cat. no. 4512). 5 μL of a mixture containing recombinant human CLK3 (Thermo Fisher Scientific, cat. no. PV3826) and the labeled peptide substrate ULight™-CREBtide (PerkinElmer, cat. no. TRF0107) prepared in 1.33× kinase buffer (Thermo Fisher Scientific, cat. no. PV3189) were then added. Finally, the reactions were started by adding 2.5 μL of a 4× solution of ATP in kinase buffer. The plates were sealed with adhesive foils and incubated for 3 hours at 30° C. in the dark. The final concentrations of CLK3, ULight™-CREBtide, and ATP were 0.5 nM, 50 nM, and 300 μM, respectively. 5 μL of 40 mM EDTA were then added to terminate the reactions. The Eu-anti-phospho-CREB antibody (PerkinElmer, cat. no. TRF0200) diluted in LANCE® detection buffer (PerkinElmer, cat. no. CR97) was then added to a final concentration of 2 nM and the reactions were incubated for 1 hour at room temperature in the dark. The signals were measured using a Synergy 4 reader (BioTek) with a 320/80 nm filter for the excitation and 620/10 nm and 665/8 nm filters for the donor and acceptor emission, respectively. Relative inhibition values were calculated by normalizing the raw data using solvent control wells (0% inhibition) and wells that received no ATP (100% inhibition). IC50 values were calculated by fitting the concentration-response data to a sigmoidal 4-parameter logistic model. IC50 values for CLK3 are determined from duplicate measurements at ten different concentrations (serial 1:3 dilutions).
In general terms: Time-resolved FRET reads energy transfer from a long-lived donor to a nearby acceptor.

A further assay has as its system MDA-MB-231 cells. Put plainly: MDA-MB-231 proliferation assay. Format: cell-based. To be noted: Homo sapiens, MDA-MB-231, 72 h, YO-PRO-1 Iodide readout.
Description: as §1, §2

T1 sequence (P49761 whole entry): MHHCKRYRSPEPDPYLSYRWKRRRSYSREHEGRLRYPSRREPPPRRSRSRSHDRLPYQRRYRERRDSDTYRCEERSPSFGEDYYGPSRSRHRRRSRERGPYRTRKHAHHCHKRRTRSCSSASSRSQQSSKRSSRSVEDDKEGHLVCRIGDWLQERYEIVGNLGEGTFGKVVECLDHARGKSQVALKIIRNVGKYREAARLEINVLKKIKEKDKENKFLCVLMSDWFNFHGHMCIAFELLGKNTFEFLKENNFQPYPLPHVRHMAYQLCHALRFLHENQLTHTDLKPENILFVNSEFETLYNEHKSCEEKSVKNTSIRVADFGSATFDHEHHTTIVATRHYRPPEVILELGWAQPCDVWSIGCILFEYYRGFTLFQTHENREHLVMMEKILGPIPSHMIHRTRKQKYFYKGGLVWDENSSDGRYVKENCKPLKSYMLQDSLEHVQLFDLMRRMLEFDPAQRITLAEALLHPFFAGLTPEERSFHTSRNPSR

In the case of `C#CCCN(C)c1c(O[C@H]2CC[C@H](N)CC2)ccc2c1CC(C)(C)c1c(N)ncnc1-2` [Example 54, 8-(trans-4-aminocyclohexoxy)-N7-but-3-ynyl-N7,5,5-trimethyl-6H-benzo[h]quinazoline-4,7-diamine], the GI50 in the assay with CAL-51 cells and in the assay on MDA-MB-231 cells was under 100 nM throughout. Besides, the IC50 at recombinant human CLK3 is under 30 nM.

`COCCCc1c(OC)ccc2c1CC(C)(C)c1c(N)ncnc1-2` [Example 61, 8-methoxy-7-(3-methoxypropyl)-5,5-dimethyl-6H-benzo[h]quinazolin-4-amine]: the GI50 in the assay with CAL-51 cells and in the assay with MDA-MB-231 cells was 100 to 2000 nM each time. Further, the IC50 at recombinant human CLK3 lay in the range of 101 to 1000 nM.

`CC(CCO)c1c(O[C@H]2CC[C@H](N)CC2)ccc2c1CC(C)(C)c1c(N)ncnc1-2` (stereo partly drawn) [Example 92, 3-[4-amino-8-(trans-4-aminocyclohexoxy)-5,5-dimethyl-6H-benzo[h]quinazolin-7-yl]butan-1-ol]: the GI50 with CAL-51 cells and with MDA-MB-231 cells was under 100 nM each time. The IC50 at recombinant human CLK3 is under 30 nM.

With `COc1ccc2c(c1N(C)CCC#N)CC(C)(C)c1c(N)ncnc1-2` [Example 95, 3-[(4-amino-8-methoxy-5,5-dimethyl-6H-benzo[h]quinazolin-7-yl)-methyl-amino]propanenitrile], the GI50 in the assay with CAL-51 cells and with MDA-MB-231 cells was under 100 nM each time. Further, at recombinant human CLK3, the IC50 was under 30 nM.

For the compound `COCCN(C)c1c(O[C@H]2CC[C@H](N)CC2)ccc2c1CC1(CCCC1)c1c(N)ncnc1-2` [Example 72, 8-(trans-4-aminocyclohexoxy)-N7-(2-methoxyethyl)-N7-methyl-spiro[6H-benzo[h]quinazoline-5,1′-cyclopentane]-4,7-diamine], the GI50 with CAL-51 cells and in the assay on MDA-MB-231 cells was 100 to 2000 nM throughout. On recombinant human CLK3, the IC50 was in the range of 101 to 1000 nM.

`COCCNc1c(O[C@H]2CC[C@@H](N)CC2)ccc2c1CC1(CCCC1)c1c(N)ncnc1-2` [Example 87, 8-(cis-4-aminocyclohexoxy)-N7-(2-methoxyethyl)spiro[6H-benzo[h]quinazoline-5,1′-cyclopentane]-4,7-diamine]: the GI50 in the assay with CAL-51 cells and in the assay on MDA-MB-231 cells was 100 to 2000 nM throughout. For the same compound, the IC50 on recombinant human CLK3 is 30 to 100 nM.

Regarding `CN(CCCC#N)c1c(O[C@H]2CC[C@H](N)CC2)ccc2c1CC(C)(C)c1c(N)ncnc1-2` [Example 58, 4-[[4-amino-8-(4-trans-aminocyclohexoxy)-5,5-dimethyl-6H-benzo[h]quinazolin-7-yl]-methyl-amino]butanenitrile], the GI50 is under 100 nM in the assay with CAL-51 cells and 100 to 2000 nM with MDA-MB-231 cells. Moreover, the IC50 on recombinant human CLK3 is under 30 nM.

On to `CN(CC#N)S(=O)(=O)c1c(O[C@H]2CC[C@H](N)CC2)ccc2c1CC(C)(C)c1c(N)ncnc1-2` [Example 113, 4-amino-8-(trans-4-aminocyclohexoxy)-N-(cyanomethyl)-N,5,5-trimethyl-6H-benzo[h]quinazoline-7-sulfonamide], for which the 50% growth inhibitory concentration (GI50) in the assay with CAL-51 cells and in the assay with MDA-MB-231 cells was 100 to 2000 nM each time. Further, the IC50 on recombinant human CLK3 is 30 to 100 nM.

Take `CN(Cc1ccncc1)c1c(O[C@H]2CC[C@H](N)CC2)ccc2c1CC(C)(C)c1c(N)ncnc1-2` [Example 101, 8-(trans-4-aminocyclohexoxy)-N7,5,5-trimethyl-N7-(4-pyridylmethyl)-6H-benzo[h]quinazoline-4,7-diamine]: the GI50 with CAL-51 cells and with MDA-MB-231 cells was 100 to 2000 nM throughout. The IC50 at recombinant human CLK3 lay within 101 to 1000 nM.

Take `CCOC(=O)CNc1c(O[C@H]2CC[C@@H](N)CC2)ccc2c1CC1(CCCC1)c1c(N)ncnc1-2` [Example 65, ethyl 2-[[4-amino-8-(cis-4-aminocyclohexoxy)spiro[6H-benzo[h]quinazoline-5,1′-cyclopentane]-7-yl]amino]acetate]: the GI50 with CAL-51 cells and in the assay on MDA-MB-231 cells was 100 to 2000 nM throughout. Moreover, the IC50 on recombinant human CLK3 fell in the range of 30 to 100 nM.

`CC1(C)Cc2c(ccc(O[C@H]3CC[C@H](N)CC3)c2N)-c2ncnc(N)c21` [Example 5, 8-(trans-4-aminocyclohexoxy)-5,5-dimethyl-6H-benzo[h]quinazoline-4,7-diamine]: the GI50 in the assay with CAL-51 cells and in the assay on MDA-MB-231 cells was 100 to 2000 nM each time. Further, the IC50 at recombinant human CLK3 is under 30 nM.

Regarding `CC1(C)Cc2c(ccc(O[C@H]3CC[C@H](N)CC3)c2N2CCCCC2)-c2ncnc(N)c21` [Example 9, 8-(trans-4-aminocyclohexoxy)-5,5-dimethyl-7-(1-piperidyl)-6H-benzo[h]quinazolin-4-amine], the GI50 in the assay on CAL-51 cells is under 100 nM; in the assay with MDA-MB-231 cells, 100 to 2000 nM. Also, the IC50 at recombinant human CLK3 was under 30 nM.

In the case of `CN(CCC#N)c1c(Br)ccc2c1CC(C)(C)c1c(N)ncnc1-2` [Example 115, 3-[(4-amino-8-bromo-5,5-dimethyl-6H-benzo[h]quinazolin-7-yl)-methyl-amino]propanenitrile], the GI50 in the assay on CAL-51 cells was under 100 nM; in the assay on MDA-MB-231 cells, 100 to 2000 nM. In addition, the IC50 on recombinant human CLK3 was under 30 nM.

`CN(C(=O)CO)c1c(O[C@H]2CC[C@H](N)CC2)ccc2c1CC(C)(C)c1c(N)ncnc1-2` [Example 41, N-[4-amino-8-(trans-4-aminocyclohexoxy)-5,5-dimethyl-6H-benzo[h]quinazolin-7-yl]-2-hydroxy-N-methyl-acetamide]: the GI50 in the assay on CAL-51 cells and in the assay on MDA-MB-231 cells was over 2000 nM in each case. In addition, the IC50 on recombinant human CLK3 is 101 to 1000 nM.

Regarding `CC1(C)Cc2c(ccc(O[C@H]3CC[C@H](N4CCOCC4)CC3)c2NC[C@@H]2CNC(=O)O2)-c2ncnc(N)c21` [Example 131, (5R)-5-[[[4-amino-5,5-dimethyl-8-(trans-4-morpholinocyclohexoxy)-6H-benzo[h]quinazolin-7-yl]amino]methyl]oxazolidin-2-one], the GI50 with CAL-51 cells and with MDA-MB-231 cells was 100 to 2000 nM in each case. Also, the IC50 on recombinant human CLK3 was under 30 nM.

On to `COc1ccc2c(c1NCC[C@@H]1CNC(=O)O1)CC(C)(C)c1c(N)ncnc1-2` [Example 89, (5R)-5-[2-[(4-amino-8-methoxy-5,5-dimethyl-6H-benzo[h]quinazolin-7-yl)amino]ethyl]oxazolidin-2-one], for which the GI50 in the assay on CAL-51 cells and in the assay on MDA-MB-231 cells was 100 to 2000 nM in each case. The IC50 at recombinant human CLK3 was 101 to 1000 nM.

In the case of `CN(CCC(F)(F)F)c1c(O[C@H]2CC[C@H](N)CC2)ccc2c1CC(C)(C)c1c(N)ncnc1-2` [Example 43, 8-(trans-4-aminocyclohexoxy)-N7,5,5-trimethyl-N7-(3,3,3-trifluoropropyl)-6H-benzo[h]quinazoline-4,7-diamine], the 50% growth inhibitory concentration (GI50) in the assay with CAL-51 cells and in the assay with MDA-MB-231 cells was 100 to 2000 nM throughout. Besides, the IC50 at recombinant human CLK3 was 30 to 100 nM.

As to `CC(=O)Nc1c(O[C@H]2CC[C@H](N)CC2)ccc2c1CC(C)(C)c1c(N)ncnc1-2` [Example 6, N-[4-amino-8-(trans-4-aminocyclohexoxy)-5,5-dimethyl-6H-benzo[h]quinazolin-7-yl]acetamide], the figures for the concentration for 50% growth inhibition (GI50) with CAL-51 cells and in the assay on MDA-MB-231 cells were 100 to 2000 nM and over 2000 nM, respectively. On recombinant human CLK3, the IC50 lay within 101 to 1000 nM.

`CC1(C)Cc2c(ccc(O[C@H]3CC[C@H](N)CC3)c2S(=O)(=O)CCC#N)-c2ncnc(N)c21` [Example 112, 3-[[4-amino-8-(trans-4-aminocyclohexoxy)-5,5-dimethyl-6H-benzo[h]quinazolin-7-yl]sulfonyl]propanenitrile]: the GI50 is 100 to 2000 nM with CAL-51 cells and over 2000 nM in the assay with MDA-MB-231 cells. Also, the IC50 on recombinant human CLK3 is 30 to 100 nM.

In general, GI50 refers to the concentration at which growth is held to half of that of the control. As a reminder, the IC50 is the concentration at which inhibition is half-maximal.
